# Legend:
# [1] = cited from earlier work
# [2] = Solubility in aqueous solutions at pH 6.0 containing a solubilizing agent; format: physicochemical
# [3] = Aqueous solubility of the active ingredient; format: physicochemical; details: water, read-out: minimum aqueous solubility
# Protocol: Hexanoic acid, 6-(nitrooxy)-, (1S,2E)-3-[(1R,2R,3S,5R)-2-[(2Z)-7-(ethylamino)-7-oxo-2-hepten-1-yl]-3,5-dihydroxycyclopentyl]-1-(2-phenylethyl)-2-propen-1-yl ester is a viscous oil having a minimum aqueous solubility of 0.02 mg/ml therefore aqueous pharmaceutical compositions of hexanoic acid, 6-(nitrooxy)-, (1S,2E)-3-[(1R,2R,3S,5R)-2-[(2Z)-7-(ethylamino)-7-oxo-2-hepten-1-yl]-3,5-dihydroxycyclopentyl]-1-(2-phenylethyl)-2-propen-1-yl ester must contain solubilizing agents that increase the water solubility of the compound and allow achieving therapeutically active concentrations of the compound.
# [4] = Pharmacokinetic evaluation after single ocular instillation, Study 2 (bimatoprost free acid in aqueous humor); format: in vivo, Dutch Belted Rabbits; details: bimatoprost free acid in aqueous humor as marker; benzalkonium chloride up to 0.02% w/w
# Source text: Pharmacokinetic Evaluation in Dutch Belted Rabbits after Single Ocular Instillation
# The aim of this study was to assess the aqueous humor content of bimatoprost free acid following topical ocular dosing with three different aqueous ophthalmic solutions containing hexanoic acid, 6-(nitrooxy)-, (1S,2E)-3-[(1R,2R,3S,5R)-2-[(2Z)-7-(ethylamino)-7-oxo-2-hepten-1-yl]-3,5-dihydroxycyclopentyl]-1-(2-phenylethyl)-2-propen-1-yl ester (0.042% w/w) in three different vehicles reported in Table 10.
# Forty animals were included in the study. They were allocated into four groups of 10 animals/group and were administered with the above reported tested aqueous ophthalmic solutions
# All animals included in the study were administered by ocular instillation of both eyes by means of a graduated pipette at a volume of […]. Two animals per formula were sacrificed at 0 h (pre-dose), 1 h, 2 h, 4 h and 8 h, and aqueous humor samples were obtained immediately from both eyes.
solubility ([2]; aqueous solution at pH 6.0 containing 0.5% (w/w) macrogol 15-hydroxystearate (Kolliphor HS15)),solubility ([2]; aqueous solution at pH 6.0 containing 0.5% (w/w) polysorbate 80 (Tween 80)),solubility [3] [µg/mL],effect of the excipient on the ocular penetration of NCX 470 [4],Molecule,"intra ocular pressure (IOP)-lowering ([1]; Impagnatiello et al., Invest Ophthalmol Vis Sci. 2015)","IOP-lowering efficacy versus bimatoprost ([1]; vs equimolar doses of bimatoprost, vehicle 0.25% Tween 80, 0.02% BAK, 2% glycerine and 0.1% EDTA, Br J Pharmacol 2018)"
0.070 % (w/w),0.074 % (w/w),20,,"CCNC(=O)CCC/C=C\C[C@@H]1[C@@H](/C=C/[C@H](CCc2ccccc2)OC(=O)CCCCCO[N+](=O)[O-])[C@H](O)C[C@@H]1O [NCX 470, Hexanoic acid, 6-(nitrooxy)-, (1S,2E)-3-[(1R,2R,3S,5R)-2-[(2Z)-7-(ethylamino)-7-oxo-2-hepten-1-yl]-3,5-dihydroxycyclopentyl]-1-(2-phenylethyl)-2-propen-1-yl ester]",effective,greater IOP-lowering efficacy
,,,did not exert any effect,benzalkonium chloride,,
